Assay results published in patent publication US10071976B2, “Small molecule fatty acid synthase inhibitors” (Sanford Burnham Prebys Medical Discovery Institute, priority 2014, dated 2018).

target: FASN-TE (Homo sapiens, UniProt P49327); test: In-vitro biochemical assay measuring FAS-TE inhibition (OMFH substrate, fluorescence)
Protocol: Min wells: Substrate+No enzyme+DMSO, Max wells: Substrate+Enzyme+DMSO, Sample wells: Substrate+Enzyme+Test compounds, Reference compound: Orlistat (make a fresh 10 mM stock in DMSO each time). 384-well black, low-volume plate (Greiner #784076)
Assay Protocol: • 1) ECHO transfer 160 nL of 125× Compound (or DMSO for control wells) per well. • 2) For Max and Sample wells: Add 10 μL of Enzyme (2×; 1.8 μM) prepared in RXN Buffer. For Min wells: Add 10 μL of RXN Buffer (No Enzyme). • 3) For all wells: Add 10 μL of Substrate (2×; 20 μM) prepared in diH2O+10% DMSO. • 4) Centrifuge plate for 1 minute at 1,000 rpm. • 5) Measure fluorescence every 5 minutes for 1-1.5 hours using the BMG POLARstar (ex 485 nm/em 520 nm; Gain=1015; 25 flashes). • 6) All volumes can be adjusted but the final DMSO concentration should be kept at about 6%.
Data Analysis: • 1) Calculate slopes and express as % Activity (Min wells=0%; Max wells=100%). • 2) Then, using Prism, calculate the IC50 values.

FASN-TE, sequence (P49327 2207-2511 limits assumed): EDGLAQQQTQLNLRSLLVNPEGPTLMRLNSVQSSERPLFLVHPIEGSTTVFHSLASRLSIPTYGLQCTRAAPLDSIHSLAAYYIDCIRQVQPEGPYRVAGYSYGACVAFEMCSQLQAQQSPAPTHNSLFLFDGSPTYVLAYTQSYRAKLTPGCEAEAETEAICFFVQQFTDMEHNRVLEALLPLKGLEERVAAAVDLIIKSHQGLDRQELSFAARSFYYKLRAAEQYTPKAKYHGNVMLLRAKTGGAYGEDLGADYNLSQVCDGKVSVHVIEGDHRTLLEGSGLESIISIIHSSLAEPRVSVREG

SMILES | IC50
O=C(COc1cccc(Cl)c1)Nc1nc(-c2ccc(S(=O)(=O)N3CCOCC3)cc2)cs1 [Compound 2] | 4500 nM
O=C(COc1ccccc1)Nc1nc(-c2ccc(S(=O)(=O)N3CCOCC3)cc2)cs1 [Compound 3] | 420 nM
O=C(Nc1nc(-c2ccc(S(=O)(=O)N3CCCC3)cc2)cs1)c1ccco1 [Compound 4] | 4680 nM
COc1ccccc1C(=O)Nc1nc(-c2ccc(S(=O)(=O)N3CCOCC3)cc2)cs1 [Compound 5] | 11900 nM
CC(C)C(=O)Nc1nc(-c2ccc(S(=O)(=O)N3CCOCC3)cc2)cs1 [Compound 6] | 820 nM
CC(C)CC(=O)Nc1nc(-c2ccc(S(=O)(=O)N3CCOCC3)cc2)cs1 [Compound 7] | 11600 nM
CCCCC(=O)Nc1nc(-c2ccc(S(=O)(=O)N3CCCC3)cc2)cs1 [Compound 8] | 200 nM
CC(=O)Nc1nc(-c2ccc(S(=O)(=O)N3CCOCC3)cc2)cs1 [Compound 9] | 13400 nM
O=C(Nc1nc(-c2ccc(S(=O)(=O)N3CCOCC3)cc2)cs1)c1cccs1 [Compound 10] | 32900 nM
O=C(Nc1nc(-c2ccc(S(=O)(=O)N3CCOCC3)cc2)cs1)c1ccco1 [Compound 11] | 37400 nM
CCCCC(=O)Nc1nc(-c2ccc(S(=O)(=O)N3CCSCC3)cc2)cs1 [Compound 12] | 710 nM
CC(=O)Nc1nc(-c2ccc(S(=O)(=O)N3CCSCC3)cc2)cs1 [Compound 13] | > 80000 nM
CCC(=O)Nc1nc(-c2ccc(S(=O)(=O)N3CCOCC3)cc2)cs1 [Compound 14] | 4500 nM
CCC(C)C(=O)Nc1nc(-c2ccc(S(=O)(=O)N3CCOCC3)cc2)cs1 (centres unmarked) [Compound 15] | 310 nM
O=C(Nc1nc(-c2ccc(S(=O)(=O)N3CCOCC3)cc2)cs1)C1CC1 [Compound 17] | 5200 nM
O=C(Nc1nc(-c2ccc(S(=O)(=O)N3CCOCC3)cc2)cs1)C1CCC1 [Compound 18] | 3600 nM
O=C(Nc1nc(-c2ccc(S(=O)(=O)N3CCOCC3)cc2)cs1)C1CCCC1 [Compound 19] | > 80000 nM
O=C(Nc1nc(-c2ccc(S(=O)(=O)N3CCOCC3)cc2)cs1)C1CCCCC1 [Compound 20] | > 80000 nM
CC(C)(C)OC(=O)Nc1nc(-c2ccc(S(=O)(=O)N3CCOCC3)cc2)cs1 [Compound 21] | 29000 nM
CCC(=O)Nc1nc(-c2ccc(S(=O)(=O)N3CCC(C)CC3)cc2)cs1 [Compound 23] | > 80000 nM
CC1CCN(S(=O)(=O)c2ccc(-c3csc(NC(=O)C(C)C)n3)cc2)CC1 [Compound 24] | 660 nM
CC1CCN(S(=O)(=O)c2ccc(-c3csc(NC(=O)C4CC4)n3)cc2)CC1 [Compound 25] | > 80000 nM
CCC(=O)Nc1nc(-c2ccc(S(=O)(=O)N3CCCC3)cc2)cs1 [Compound 26] | 650 nM
CC(C)C(=O)Nc1nc(-c2ccc(S(=O)(=O)N3CCCC3)cc2)cs1 [Compound 27] | 277 nM
O=C(Nc1nc(-c2ccc(S(=O)(=O)N3CCCC3)cc2)cs1)C1CC1 [Compound 28] | 560 nM
O=C(Nc1nc(-c2ccc(S(=O)(=O)N3CCCC3)cc2)cs1)C1CCC1 [Compound 29] | 400 nM
O=C(Nc1nc(-c2ccc(S(=O)(=O)N3CCCC3)cc2)cs1)C1CCCC1 [Compound 30] | 730 nM

SMILES | IC50
CCC(=O)Nc1nc(-c2ccc(S(=O)(=O)N(CC)CC)cc2)cs1 [Compound 31] | 4250 nM
CCCCC(=O)Nc1nc(-c2ccc(S(=O)(=O)N(CC)CC)cc2)cs1 [Compound 32] | 172 nM
CCN(CC)S(=O)(=O)c1ccc(-c2csc(NC(=O)C(C)C)n2)cc1 [Compound 33] | 280 nM
CCN(CC)S(=O)(=O)c1ccc(-c2csc(NC(=O)C3CC3)n2)cc1 [Compound 34] | 2300 nM
CCN(CC)S(=O)(=O)c1ccc(-c2csc(NC(=O)C3CC3)n2)cc1 [Compound 35] | 990 nM
CCN(CC)S(=O)(=O)c1ccc(-c2csc(NC(=O)C3CCCC3)n2)cc1 [Compound 36] | 1200 nM
CCN(CC)S(=O)(=O)c1ccc(-c2csc(NC(=O)C3CCCCC3)n2)cc1 [Compound 38] | 2900 nM
CC(C)C(=O)Nc1nc(-c2ccc(S(=O)(=O)N(C)C)cc2)cs1 [Compound 39] | 580 nM
CCC(=O)Nc1nc(-c2ccc(S(=O)(=O)N(C)C)cc2)cs1 [Compound 40] | 1100 nM
CN(C)S(=O)(=O)c1ccc(-c2csc(NC(=O)C3CC3)n2)cc1 [Compound 41] | 1200 nM
CN(C)S(=O)(=O)c1ccc(-c2csc(NC(=O)C3CCC3)n2)cc1 [Compound 42] | 1400 nM
CN(C)S(=O)(=O)c1ccc(-c2csc(NC(=O)C3CCCC3)n2)cc1 [Compound 43] | 1600 nM
CCC(C)C(=O)Nc1nc(-c2ccc(S(=O)(=O)N3CCCCC3C)cc2)cs1 (centres unmarked) [Compound 44] | 290 nM
CCCCC(=O)Nc1nc(-c2ccc(S(=O)(=O)N3CCCCC3C)cc2)cs1 (centres unmarked) [Compound 45] | 380 nM
CCCC(=O)Nc1nc(-c2ccc(S(=O)(=O)N3CCCCC3C)cc2)cs1 (centres unmarked) [Compound 46] | 580 nM
CCCCCCCC(=O)Nc1nc(-c2ccc(S(=O)(=O)N3CCCCC3C)cc2)cs1 (centres unmarked) [Compound 47] | 4300 nM
CCC(C)C(=O)Nc1nc(-c2ccc(S(=O)(=O)N3CCCC3)cc2)cs1 (centres unmarked) [Compound 48] | 150 nM
CCC(CC)C(=O)Nc1nc(-c2ccc(S(=O)(=O)N3CCCC3)cc2)cs1 [Compound 49] | 260 nM
CCCCCC(=O)Nc1nc(-c2ccc(S(=O)(=O)N3CCCC3)cc2)cs1 [Compound 50] | 140 nM
CCCCCCC(=O)Nc1nc(-c2ccc(S(=O)(=O)N3CCCC3)cc2)cs1 [Compound 51] | 850 nM
CC(C)CC(=O)Nc1nc(-c2ccc(S(=O)(=O)N3CCCC3)cc2)cs1 [Compound 52] | 1600 nM
CCCCCC(=O)Nc1nc(-c2ccc(S(=O)(=O)N(CC)CC)cc2)cs1 [Compound 53] | 200 nM
CCCCCCC(=O)Nc1nc(-c2ccc(S(=O)(=O)N(CC)CC)cc2)cs1 [Compound 54] | 1400 nM
CCC(CC)C(=O)Nc1nc(-c2ccc(S(=O)(=O)N(CC)CC)cc2)cs1 [Compound 55] | 330 nM
CCCCCC(=O)Nc1nc(-c2ccc(S(=O)(=O)N3CCC(C)CC3)cc2)cs1 [Compound 57] | 750 nM
CCCCCCC(=O)Nc1nc(-c2ccc(S(=O)(=O)N3CCC(C)CC3)cc2)cs1 [Compound 58] | 4500 nM
CC(C)CC(=O)Nc1nc(-c2ccc(S(=O)(=O)N3CCC(C)CC3)cc2)cs1 [Compound 59] | 60400 nM

SMILES | IC50
CCC(C)C(=O)Nc1nc(-c2ccc(S(=O)(=O)N3CCC(C)CC3)cc2)cs1 (centres unmarked) [Compound 60] | 410 nM
CCC(CC)C(=O)Nc1nc(-c2ccc(S(=O)(=O)N3CCC(C)CC3)cc2)cs1 [Compound 61] | 1800 nM
O=C(Nc1nc(-c2ccc(S(=O)(=O)N3CCCC3)cc2)cs1)C1COc2ccccc2O1 (centres unmarked) [Compound 63] | 1310 nM
O=S(=O)(c1ccc(-c2csc(-c3cccnc3)n2)cc1)N1CCCCC1 [Compound 64] | 2680 nM
O=S(=O)(c1ccc(-c2csc(-c3cccnc3)n2)cc1)N1CCCC1 [Compound 69] | 1510 nM
O=S(=O)(c1ccc(-c2csc(Nc3ccc(F)cc3)n2)cc1)N1CCCC1 [Compound 80] | 14800 nM
O=S(=O)(c1ccc(-c2csc(-c3cccnc3)n2)cc1)N1CCOCC1 [Compound 81] | 2140 nM
CCN(CC)S(=O)(=O)c1ccc(-c2csc(C)n2)cc1 [Compound 82] | ≥ 80000 nM
CN(C)S(=O)(=O)c1ccc(-c2csc(-c3cccnc3)n2)cc1 [Compound 83] | 5210 nM
O=S(=O)(c1ccc(-c2csc(Cc3ccccc3)n2)cc1)N1CCOCC1 [Compound 96] | 660 nM
O=S(=O)(c1ccc(-c2csc(N3CCCC3)n2)cc1)N1CCOCC1 [Compound 98] | 1180 nM
CCN(CC)S(=O)(=O)c1ccc(-c2csc(NC(=O)CC(C)C)n2)cc1 [Compound 99] | 19000 nM
CCc1nc(-c2ccc(S(=O)(=O)N(CC)CC)cc2)cs1 [Compound 100] | ≥ 80000 nM
CCN(CC)S(=O)(=O)c1ccc(-c2csc(C(C)C)n2)cc1 [Compound 101] | 11400 nM
CCN(CC)S(=O)(=O)c1ccc(-c2csc(C(C)(C)C)n2)cc1 [Compound 102] | 12600 nM
CCN(CC)S(=O)(=O)c1ccc(-c2csc(-c3ccc(F)cc3)n2)cc1 [Compound 103] | 1110 nM
CCN(CC)S(=O)(=O)c1ccc(-c2csc(-c3ccc(Cl)cc3)n2)cc1 [Compound 104] | ≥ 80000 nM
CCN(CC)S(=O)(=O)c1ccc(-c2csc(-c3ccc(Br)cc3)n2)cc1 [Compound 105] | ≥ 80000 nM
CCN(CC)S(=O)(=O)c1ccc(-c2csc(-c3ccc(Br)cc3C)n2)cc1 [Compound 106] | ≥ 80000 nM
CCN(CC)S(=O)(=O)c1ccc(-c2csc(-c3cccc(Br)c3)n2)cc1 [Compound 107] | ≥ 80000 nM
CCN(CC)S(=O)(=O)c1ccc(-c2csc(Cc3cccc(C(F)(F)F)c3)n2)cc1 [Compound 108] | ≥ 80000 nM
CCN(CC)S(=O)(=O)c1ccc(-c2csc(Cc3ccccc3F)n2)cc1 [Compound 109] | 1720 nM
CCN(CC)S(=O)(=O)c1ccc(-c2csc(Cc3cccc(F)c3)n2)cc1 [Compound 110] | 3150 nM
CCN(CC)S(=O)(=O)c1ccc(-c2csc(Cc3ccc(F)cc3)n2)cc1 [Compound 111] | 2410 nM
CCN(CC)S(=O)(=O)c1ccc(-c2csc(Cc3cccc(I)c3)n2)cc1 [Compound 112] | 5010 nM
CCN(CC)S(=O)(=O)c1ccc(-c2csc(Cc3ccccc3OC)n2)cc1 [Compound 113] | 6920 nM
